We go through one compound from patent US9328122B2, “7-substituted Hanfangichin B derivative, and preparation method and use thereof” (HANGZHOU BENSHENG PHARMACEUTICAL CO., LTD., priority 2012, dated 2016).

Converted amounts (≈) assume the structure as drawn.

One test has as its system NB4 (acute promyelocytic leukemia) cells. Description: MTT cell growth inhibition, leukemia cells. The test is classed as cell-based. The conditions noted are these: Homo sapiens; NB4, 72 h, MTT; read-out: IC50. From the text: (§1) Leukemia cell lines: leukemia cell lines: K562adr (drug-resistant, chronic myeloid leukemia, CML), NB4 (acute promyelocytic leukemia, AML), Kasumi-1 (acute myeloid leukemia M2 type, AML-M2), Jurkat (acute lymphoblastic leukemia, ALL), all of which were donated by Cancer Research Institute of Zhejiang University, China; and H9 (acute lymphoblastic leukemia, ALL), which was purchased from China Center for Type Culture Collection.
(§2) Reagents: The standard sample of fangchinoline (FAN) was purchased from Ci Yuan Biotechnology Co., Ltd., Shaanxi, China; and the 7-substituted fangchinoline derivatives according to the present invention.
(§3) 6000 well-growing leukemia cells were obtained and inoculated into wells of a 96-well cell culture plate. The culture medium was a RPMI-1640 cell culture medium containing 10% fetal bovine serum. After adding the 7-substituted fangchinoline derivatives of different concentrations the next day and mixing uniformly, the plate was placed in a carbon dioxide cell incubator (5% CO2) at 37° C. and incubating for 72 hours. Then the viable cell concentration was determined by the MTT method.
What is called IC50 is the concentration needed to halve the response being measured. With `COc1ccc2cc1Oc1ccc(cc1)C[C@H]1c3cc(c(OC)cc3CCN1C)Oc1c(OS(=O)(=O)c3ccccc3)c(OC)cc3c1[C@H](C2)N(C)CC3` [BS-FC-104], the IC50 amounted to 0.28 µg/mL (≈ 0.374 µM).

The test is the same for the next values; noted with them: Homo sapiens; NB4, 72 h, MTT; read-out: IC90.
The IC90 is the point of the concentration-response curve where the effect stands at 90%. On to `COc1ccc2cc1Oc1ccc(cc1)C[C@H]1c3cc(c(OC)cc3CCN1C)Oc1c(OS(=O)(=O)c3ccccc3)c(OC)cc3c1[C@H](C2)N(C)CC3` [BS-FC-104], for which the IC90 was found to be 0.92 µg/mL (≈ 1.23 µM).

The next test concerns K562/ADR (K562adr, drug-resistant chronic myeloid leukemia) cells. Description: MTT cell growth inhibition, leukemia cells. Particulars: Homo sapiens; K562/ADR, 72 h, MTT; read-out: IC50. Format: cell-based.
Description: as §1, §2, §3
As for `COc1ccc2cc1Oc1ccc(cc1)C[C@H]1c3cc(c(OC)cc3CCN1C)Oc1c(OS(=O)(=O)c3ccccc3)c(OC)cc3c1[C@H](C2)N(C)CC3` [BS-FC-104], the IC50 came to 0.42 µg/mL (≈ 0.561 µM).

The same test, now with this note: Homo sapiens; K562/ADR, 72 h, MTT; read-out: IC90.
Regarding `COc1ccc2cc1Oc1ccc(cc1)C[C@H]1c3cc(c(OC)cc3CCN1C)Oc1c(OS(=O)(=O)c3ccccc3)c(OC)cc3c1[C@H](C2)N(C)CC3` [BS-FC-104], the IC90 came to 2.65 µg/mL (≈ 3.54 µM).

Another test relates to Kasumi-1 (acute myeloid leukemia M2 type) cells. Description: MTT cell growth inhibition, leukemia cells. The test is classed as cell-based, human. Particulars: Homo sapiens; Kasumi-1, 72 h, MTT; read-out: IC50.
Description: as §1, §2, §3
Regarding `COc1ccc2cc1Oc1ccc(cc1)C[C@H]1c3cc(c(OC)cc3CCN1C)Oc1c(OS(=O)(=O)c3ccccc3)c(OC)cc3c1[C@H](C2)N(C)CC3` [BS-FC-104], the IC50 stood at 0.95 µg/mL (≈ 1.27 µM).

The same test, now with this note: Homo sapiens; Kasumi-1, 72 h, MTT; read-out: IC90.
For the compound `COc1ccc2cc1Oc1ccc(cc1)C[C@H]1c3cc(c(OC)cc3CCN1C)Oc1c(OS(=O)(=O)c3ccccc3)c(OC)cc3c1[C@H](C2)N(C)CC3` [BS-FC-104], the IC90 turned out to be 3.68 µg/mL (≈ 4.91 µM).

The subject of a further test is H9 (acute lymphoblastic leukemia) cells. Description: MTT cell growth inhibition, leukemia cells. Format: cell-based, human. The conditions noted are these: Homo sapiens; H9, 72 h, MTT; read-out: IC50.
Description: as §1, §2, §3
Consider `COc1ccc2cc1Oc1ccc(cc1)C[C@H]1c3cc(c(OC)cc3CCN1C)Oc1c(OS(=O)(=O)c3ccccc3)c(OC)cc3c1[C@H](C2)N(C)CC3` [BS-FC-104], for which the IC50 was 1 µg/mL (≈ 1.34 µM).

The same test, now with this note: Homo sapiens; H9, 72 h, MTT; read-out: IC90.
As to `COc1ccc2cc1Oc1ccc(cc1)C[C@H]1c3cc(c(OC)cc3CCN1C)Oc1c(OS(=O)(=O)c3ccccc3)c(OC)cc3c1[C@H](C2)N(C)CC3` [BS-FC-104], the IC90 stood at 4.99 µg/mL (≈ 6.66 µM).

The test system of a further test is Jurkat (acute lymphoblastic leukemia) cells. Description: MTT cell growth inhibition, leukemia cells. Particulars: Homo sapiens; Jurkat, 72 h, MTT; read-out: IC50. Format: cell-based, human.
Description: as §1, §2, §3
Regarding `COc1ccc2cc1Oc1ccc(cc1)C[C@H]1c3cc(c(OC)cc3CCN1C)Oc1c(OS(=O)(=O)c3ccccc3)c(OC)cc3c1[C@H](C2)N(C)CC3` [BS-FC-104], the IC50 stood at 0.45 µg/mL (≈ 0.601 µM).

Still in this test, the particulars now being: Homo sapiens; Jurkat, 72 h, MTT; read-out: IC90.
For `COc1ccc2cc1Oc1ccc(cc1)C[C@H]1c3cc(c(OC)cc3CCN1C)Oc1c(OS(=O)(=O)c3ccccc3)c(OC)cc3c1[C@H](C2)N(C)CC3` [BS-FC-104], the IC90 stood at 3.03 µg/mL (≈ 4.05 µM).

A further test relates to Becap-37 (human breast cancer) cells. Nature of the test: MTT cell growth inhibition, solid tumor cells. The test is classed as cell-based. The conditions noted are these: Homo sapiens; Becap-37, 72 h, MTT; read-out: IC50. The text has this:
(§4) Hep-2 (laryngeal carcinoma), A549 (human lung cancer), CaES-17 (esophageal cancer cell), PC-3 (prostate cancer), CNE (nasopharyngeal carcinoma cell) and SK-OV-3 (ovarian cancer cell), all of which were purchased from China Center For Type Culture Collection; RKO (human colon adenocarcinoma cell), MGC-803 (human gastric cancer cell), MG-63 (osteosarcoma), and U87-MG (malignant glioma cell), all of which were purchased from Fuxiang Bio-tech Co. Ltd., Shanghai, China; PANC-1 (pancreatic cancer), Becap37 (human breast cancer cell), Hela (human cervical cancer cell) and Hep G2 (human liver cancer cell), all of which were donated by Cancer Research Institute of Zhejiang University, China.
(§5) 6000 well-growing human solid tumor cells were obtained and inoculated into wells of a 96-well cell culture plate. The culture medium was DMEM High Glucose cell culture medium containing 10% fetal bovine serum. The plate was placed in a carbon dioxide cell incubator (5% CO2) at 37° C. and incubated for 24 hours. After added with 7-substituted fangchinoline derivatives of different concentration and mixing uniformly, the plate was placed in a carbon dioxide cell incubator (5% CO2) at 37° C. and incubated for 72 hours. Then the viable cell concentration was determined by the MTT method.
For `COc1ccc2cc1Oc1ccc(cc1)C[C@H]1c3cc(c(OC)cc3CCN1C)Oc1c(OS(=O)(=O)c3ccccc3)c(OC)cc3c1[C@H](C2)N(C)CC3` [BS-FC-104], the IC50 came out at 1.92 µg/mL (≈ 2.56 µM).

Staying with this test, now noted: Homo sapiens; Becap-37, 72 h, MTT; read-out: IC90.
`COc1ccc2cc1Oc1ccc(cc1)C[C@H]1c3cc(c(OC)cc3CCN1C)Oc1c(OS(=O)(=O)c3ccccc3)c(OC)cc3c1[C@H](C2)N(C)CC3` [BS-FC-104]: the IC90 was 3.94 µg/mL (≈ 5.26 µM).

The next test has as its system Hep G2 (human liver cancer) cells. Nature of the test: MTT cell growth inhibition, solid tumor cells. Particulars: Homo sapiens, HepG2; Hep G2, 72 h, MTT; read-out: IC50. The test is classed as cell-based.
Description: as §4, §5
Consider `COc1ccc2cc1Oc1ccc(cc1)C[C@H]1c3cc(c(OC)cc3CCN1C)Oc1c(OS(=O)(=O)c3ccccc3)c(OC)cc3c1[C@H](C2)N(C)CC3` [BS-FC-104], for which the IC50 amounted to 1.44 µg/mL (≈ 1.92 µM).

Still in this test, the particulars now being: Homo sapiens, HepG2; Hep G2, 72 h, MTT; read-out: IC90.
In the case of `COc1ccc2cc1Oc1ccc(cc1)C[C@H]1c3cc(c(OC)cc3CCN1C)Oc1c(OS(=O)(=O)c3ccccc3)c(OC)cc3c1[C@H](C2)N(C)CC3` [BS-FC-104], the IC90 was 3.9 µg/mL (≈ 5.21 µM).

Another test has as its system U87-MG (malignant glioma) cells. Nature of the test: MTT cell growth inhibition, solid tumor cells. Particulars: Homo sapiens, U-87 MG; U87-MG, 72 h, MTT; read-out: IC50. Format: cell-based.
Description: as §4, §5
On to `COc1ccc2cc1Oc1ccc(cc1)C[C@H]1c3cc(c(OC)cc3CCN1C)Oc1c(OS(=O)(=O)c3ccccc3)c(OC)cc3c1[C@H](C2)N(C)CC3` [BS-FC-104], for which the IC50 amounted to 1.63 µg/mL (≈ 2.18 µM).

Still in this test, the particulars now being: Homo sapiens, U-87 MG; U87-MG, 72 h, MTT; read-out: IC90.
`COc1ccc2cc1Oc1ccc(cc1)C[C@H]1c3cc(c(OC)cc3CCN1C)Oc1c(OS(=O)(=O)c3ccccc3)c(OC)cc3c1[C@H](C2)N(C)CC3` [BS-FC-104]: the IC90 came out at 4.5 µg/mL (≈ 6.01 µM).

The test system of the next test is RKO (human colon adenocarcinoma) cells. Nature of the test: MTT cell growth inhibition, solid tumor cells. The test is classed as cell-based. The conditions noted are these: Homo sapiens; RKO, 72 h, MTT; read-out: IC50.
Description: as §4, §5
As for `COc1ccc2cc1Oc1ccc(cc1)C[C@H]1c3cc(c(OC)cc3CCN1C)Oc1c(OS(=O)(=O)c3ccccc3)c(OC)cc3c1[C@H](C2)N(C)CC3` [BS-FC-104], the IC50 was 0.74 µg/mL (≈ 0.988 µM).
